Our source for the IC50 values is US20050038074A1, “Mitotic kinesin inhibitors” (priority 2003, published 2005).

Bounds are passed on as bounds.

The assay addresses T1, human KSP motor domain (KSP(367H)) (Homo sapiens, UniProt P52732).
T1 construct: were used to amplify the motor domain and the neck linker region; made in house; host or cells: E. coli BL21 (DE3)
T1 sequence (P52732 18-359 limits assumed): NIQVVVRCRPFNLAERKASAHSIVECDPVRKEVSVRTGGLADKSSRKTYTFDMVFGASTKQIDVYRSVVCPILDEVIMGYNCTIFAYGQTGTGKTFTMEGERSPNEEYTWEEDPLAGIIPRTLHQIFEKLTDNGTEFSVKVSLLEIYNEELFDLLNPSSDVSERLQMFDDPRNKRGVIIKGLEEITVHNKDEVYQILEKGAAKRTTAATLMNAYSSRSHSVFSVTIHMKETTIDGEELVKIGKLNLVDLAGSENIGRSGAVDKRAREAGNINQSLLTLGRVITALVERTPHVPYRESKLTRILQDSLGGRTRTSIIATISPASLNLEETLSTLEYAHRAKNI
The assay can be described thus: Kinesin ATPase In Vitro Assay. As to conditions: kinesin motor domain with microtubules, 1 mM ATP, 23° C.; free phosphate by quinaldine red/ammonium molybdate. The assay is classed as biochemical. The text has this:
I. Kinesin ATPase In Vitro Assay
Cloning and Expression of Human Poly-Histidine Tagged KSP Motor Domain (KSP(367H))
Plasmids for the expression of the human KSP motor domain construct were cloned by PCR using a pBluescript full length human KSP construct (Blangy et al., Cell, vol.83, pp1159-1169, 1995) as a template. The N-terminal primer 5′-[…] (SEQ.ID.NO.: 1) and the C-terminal primer 5′-[…] […] (SEQ.ID.NO.: 2) were used to amplify the motor domain and the neck linker region. The PCR products were digested with AseI and XhoI, ligated into the NdeI/XhoI digestion product of pRSETa (Invitrogen) and transformed into E. coli BL21 (DE3).
Cells were grown at 37° C. to an OD600 of 0.5. After cooling the culture to room temperature expression of KSP was induced with 100 μM IPTG and incubation was continued overnight. Cells were pelleted by centrifugation and washed once with ice-cold PBS. Pellets were flash-frozen and stored −80° C.
Cell pellets were thawed on ice and resuspended in lysis buffer (50 mM K-HEPES, pH 8.0, 250 mM KCl, 0.1% Tween, 10 mM imidazole, 0.5 mM Mg-ATP, 1 mM PMSF, 2 mM benzimidine, 1× complete protease inhibitor cocktail (Roche)). Cell suspensions were incubated with 1 mg/ml lysozyme and 5 mM β-mercaptoethanol on ice for 10 minutes, followed by sonication (3×30 sec). All subsequent procedures were performed at 4° C. Lysates were centrifuged at 40,000×g for 40 minutes. Supernatants were diluted and loaded onto an SP Sepharose column (Pharmacia, 5 ml cartridge) in buffer A (50 mM K-HEPES, pH 6.8, 1 mM MgCl2, 1 mM EGTA, 10 μM Mg-ATP, 1 mM DTT) and eluted with a 0 to 750 mM KCl gradient in buffer A. Fractions containing KSP were pooled and incubated with Ni-NTA resin (Qiagen) for one hour. The resin was washed three times with buffer B (Lysis buffer minus PMSF and protease inhibitor cocktail), followed by three 15-minute incubations and washes with buffer B. Finally, the resin was incubated and washed for 15 minutes three times with buffer C (same as buffer B except for pH 6.0) and poured into a column. KSP was eluted with elution buffer (identical to buffer B except for 150 mM KCl and 250 mM imidazole). KSP-containing fractions were pooled, made 10% in sucrose, and stored at −80° C.
Microtubules are prepared from tubulin isolated from bovine brain. Purified tubulin (>97% MAP-free) at 1 mg/ml is polymerized at 37° C. in the presence of 10 JAM paclitaxel, 1 mM DTT, 1 mM GTP in BRB80 buffer (80 mM K-PIPES, 1 mM EGTA, 1 mM MgCl2 at pH 6.8). The resulting microtubules are separated from non-polymerized tubulin by ultracentrifugation and removal of the supernatant. The pellet, containing the microtubules, is gently resuspended in 10 μM paclitaxel, 1 mM DTT, 50 μg/ml ampicillin, and 5 μg/ml chloramphenicol in BRB80.
The kinesin motor domain is incubated with microtubules, 1 mM ATP (1:1 MgCl2: Na-ATP), and compound at 23° C. in buffer containing 80 mM K-HEPES (pH 7.0), 1 mM EGTA, 1 mM DTT, 1 mM MgCl2, and 50 mM KCl. The reaction is terminated by a 2-10 fold dilution with a final buffer composition of 80 mM HEPES and 50 mM EDTA. Free phosphate from the ATP hydrolysis reaction is measured via a quinaldine red/ammonium molybdate assay by adding 150 μl of quench C buffer containing a 2:1 ratio of quench A:quench B. Quench A contains 0.1 mg/mil quinaldine red and 0.14% polyvinyl alcohol; quench B contains 12.3 mM ammonium molybdate tetrahydrate in 1.15 M sulfuric acid. The reaction is incubated for 10 minutes at 23° C., and the absorbance of the phospho-molybdate complex is measured at 540 nm.
For the compound `CN1CC[C@@H](N(C)C(=O)N2CC(c3cc(F)ccc3F)=C[C@@]2(CO)c2ccccc2)[C@H](F)C1` (single isomer, unassigned) [Compound 5-3], the IC50 (as a rule, the concentration that gives 50% inhibition) is at most 50 µM. The compound `CN(C(=O)N1CC(c2cc(F)ccc2F)=C[C@@]1(CO)c1ccccc1)C1CCNCC1F` (stereo in doubt) [Compound 10-2, (2S)-4-(2,5-Difluorophenyl)-N-[(3S,4R)-3-fluoropiperidin-4-yl]-2-(hydroxymethyl)-N-methyl-2-phenyl-2,5-dihydro-1H-pyrrole-1-carboxamide] displayed an IC50 of at most 50 µM. For `CN1CC[C@H](N(C)C(=O)N2CC(c3cc(F)ccc3F)=C[C@@]2(CO)c2ccccc2)[C@H](F)C1` [Compound 3-1, (2S)-4-(2,5-Difluorophenyl)-N-[(3R,4S)-3-fluoro-1-methylpiperidin-4-yl]-2-(hydroxymethyl)-N-methyl-2-phenyl-2,5-dihydro-1H-pyrrole-1-carboxamide] the value was at most 50 µM; for `CN1CC[C@@H](N(C)C(=O)N2CC(c3cc(F)ccc3F)=C[C@@]2(CO)c2ccccc2)[C@@H](F)C1` [Compound 4-2, (2S)-4-(2,5-Difluorophenyl)-N-[(3S,4R)-3-fluoro-1-methylpiperidin-4-yl]-2-(hydroxymethyl)-N-methyl-2-phenyl-2,5-dihydro-1H-pyrrole-1-carboxamide], at most 50 µM.

Take `CN1CC[C@H](N(C)C(=O)N2CC(c3cc(F)ccc3F)=C[C@H]2c2ccccc2)[C@H](F)C1` [Compound 7-1, (2S)-4-(2,5-Difluorophenyl)-N-[(3R,4S)-3-fluoro-1-methylpiperidin-4-yl]-N-methyl-2-phenyl-2,5-dihydro-1H-pyrrole-1-carboxamide]: the IC50 is at most 50 µM. `CN1CC[C@@H](N(C)C(=O)N2CC(c3cc(F)ccc3F)=C[C@H]2c2ccccc2)[C@@H](F)C1` [Compound 7-2, (2S)-4-(2,5-Difluorophenyl)-N-[(3S,4R)-3-fluoro-1-methylpiperidin-4-yl]-N-methyl-2-phenyl-2,5-dihydro-1H-pyrrole-1-carboxamide] came in with an IC50 of at most 50 µM. For `CN1CC[C@@H](N(C)C(=O)N2CC(c3cc(F)ccc3F)=C[C@H]2c2ccccc2)[C@H](F)C1` [Compound 7-3, (2S)-4-(2,5-Difluorophenyl)-N-[(3R,4R)-3-fluoro-1-methylpiperidin-4-yl]-N-methyl-2-phenyl-2,5-dihydro-1H-pyrrole-1-carboxamide] the value was at most 50 µM; for `CN(C(=O)N1CC(c2cc(F)ccc2F)=C[C@@]1(CO)c1ccccc1)[C@H]1CC[N+](C)([O-])C[C@H]1F` (stereo partly drawn) [Compound 9-1, (2S)-4-(2,5-Difluorophenyl)-N-[(3R,4S)-3-fluoro-1-methyl-1-oxidopiperidin-4-yl]-2-(hydroxymethyl)-N-methyl-2-phenyl-2,5-dihydro-1H-pyrrole-1-carboxamide], at most 50 µM; for `CC(C)N1CC[C@H](N(C)C(=O)N2CC(c3cc(F)ccc3F)=C[C@@]2(CO)c2ccccc2)[C@H](F)C1` [Compound 11-1, (2S)-4-(2,5-Difluorophenyl)-N-[(3R,4S)-3-fluoro-1-isopropylpiperidin-4-yl]-2-(hydroxymethyl)-N-methyl-2-phenyl-2,5-dihydro-1H-pyrrole-1-carboxamide], at most 50 µM. For `CN(C(=O)N1CC(c2cc(F)ccc2F)=C[C@@]1(CO)c1ccccc1)[C@@H]1CCNC[C@@H]1F` [Compound 12-1, (2S)-4-(2,5-Difluorophenyl)-N-[(3S,4R)-3-fluoropiperidin-4-yl]-2-(hydroxymethyl)-N-methyl-2-phenyl-2,5-dihydro-1H-pyrrole-1-carboxamide] the value was at most 50 µM; for `CN(C(=O)N1CC(c2cc(F)ccc2F)=C[C@@]1(CO)c1ccccc1)[C@@H]1CCNC[C@H]1F` [Compound 12-2, (2S)-4-(2,5-Difluorophenyl)-N-[(3R,4R)-3-fluoropiperidin-4-yl]-2-(hydroxymethyl)-N-methyl-2-phenyl-2,5-dihydro-1H-pyrrole-1-carboxamide], at most 50 µM; for `CN(C(=O)N1CC(c2cc(F)ccc2F)=C[C@@]1(CO)c1ccccc1)[C@H]1CCNC[C@@H]1F` [Compound 12-3, (2S)-4-(2,5-Difluorophenyl)-N-[(3S,4S)-3-fluoropiperidin-4-yl]-2-(hydroxymethyl)-N-methyl-2-phenyl-2,5-dihydro-1H-pyrrole-1-carboxamide], at most 50 µM.
